Data: patent US20240156698A1, “BIOCIDE COMPOSITIONS AND USES THEREOF” (PHARMOTECH SA, priority 2021, published 2024)

Key:
CB2 receptors = CB2 receptors (Homo sapiens, UniProt P34972); settings: compared with THC; cited from earlier work
[1] = Skin absorption, Franz diffusion cells with dermatomed skin explants; format: in vitro ADME
Method: The transdermal absorption tests are carried out using a modified methodology of Franz diffusion cells, in which a semi-permeable membrane is used, such as reconstructed skin or skin explants. The membrane is located between the (i) donor and (ii) receptor compartments with the stratum corneum facing upward. The product is applied to the exposed stratum corneum in the donor compartment. Under the membrane, the receiving chamber contains a solution that simulates physiological conditions and where the tested substances are highly soluble.
After the product is delivered to the surface of the skin, samples are taken from the receptor compartment at predetermined times to determine the amount of substance accumulated in the receptor compartment as a function of time. In addition, at the end of the test, the extraction of the substance that has been retained in the skin is carried out. For the quantification of all the samples obtained, a suitable analytical method is necessary for each substance investigated. The skin explants were dermatomed (the dermatome device allows to cut skin layers of the skin at a determined thickness) at 200 μm thickness and placed on Franz cells, the receptor compartment was filled with PBS solution, used to simulate the physiological fluid and allowed to equilibrate for at least 30 minutes. Then, receptor solution was added into the donor compartment and the integrity of the skin was determined. After removing the solution and drying the donor, the composition of the invention 3 μl/0.38 cm2 (7.9 uL/cm2) was administered into the donor compartment.
Samples from the receptor compartment were taken at predetermined times to obtain the amount of active permeated. Said samples were filtered on 0.2 μm pore size cellulose acetate filters and analyzed by HPLC. The sample volume taken was replaced with fresh receptor solution. After taking the last sample from the receptor compartment, a first wash of the skin surface was performed with PBS, then, the Franz cells were disassembled.
The skin was carefully dried and the stratum corneum was removed by tape stripping. Tapes were put in 2 mL of extraction medium for at least 2 hours. The skin diffusion area was cut into small pieces and placed in extraction liquid under continuous stirring for 1 hour. After filtering the samples obtained, they were analyzed by HPLC to obtain the amount of substance retained on the skin.

[2] = 2 hours after application of the composition to the skin
[3] = composition of the invention 7.9 uL/cm2 applied to skin explant, Franz cell

Sequence of CB2 receptors (P34972 whole entry, the tested form may be a part): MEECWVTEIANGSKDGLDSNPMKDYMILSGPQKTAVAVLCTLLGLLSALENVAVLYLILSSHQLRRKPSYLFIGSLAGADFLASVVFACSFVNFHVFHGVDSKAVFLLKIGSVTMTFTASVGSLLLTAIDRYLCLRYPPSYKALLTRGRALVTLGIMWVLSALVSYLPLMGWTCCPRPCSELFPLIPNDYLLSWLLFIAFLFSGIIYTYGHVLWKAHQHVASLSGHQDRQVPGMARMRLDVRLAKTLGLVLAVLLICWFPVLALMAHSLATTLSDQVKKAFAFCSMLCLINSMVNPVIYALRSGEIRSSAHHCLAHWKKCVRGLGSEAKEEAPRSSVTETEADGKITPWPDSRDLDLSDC

C=C(C)[C@@H]1CCC(C)=C[C@H]1c1c(O)cc(CCCCC)cc1O [CBD, 2-[(1R,6R)-6-isopropenyl-3-methylcyclohex-2-en-1-yl]-5-pentylbenzene-1,3-diol]
Affinity for CB2 receptors (CB2 receptors): very low affinity
Permeation of CBD (receptor compartment) ([1]; 1 hour after application of the composition to the skin): No permeation
CBD in the stratum corneum (tape stripping) [1, 2]: No CBD was found
Permeation of CBD (receptor compartment) [1, 2]: No permeation
CBD absorbed in the skin [1, 3]: 2.38±1.52 μg CBD/cm^2
CBD absorbed in the skin as share of the CBD applied on the top of the skin [1, 3]: 15.85%
